The text below walks through data of PMC11058275, “Targeted potent antimicrobial and antitumor oxygen-heterocyclic-based pyran analogues: synthesis and computational studies” (Scientific Reports, 2024).

One may read the zone of inhibition as the size of the clear area around the sample on an inoculated plate. As a reminder, the MIC is the lowest concentration found to suppress growth. Read a high MIC as a need for much substance. A word on the IC50: it is the point on the concentration scale where inhibition reaches its midpoint. Usually melting point stands for the temperature of the solid-liquid transition.

Data set [1] has as its system Bacillus cereus (ATCC 10987). As to the kind of experiment: Agar diffusion antibacterial screening (inhibition zone). The format is cell-based. To be noted: ATCC10987, B. cereus, 1 mg/mL, Mueller–Hinton agar, read-out: Diameter of inhibition zone. As for the experimental part:
(§1) The antibacterial activity of β-enamionitriles (4a-q) was screened using Mueller–Hinton agar medium for bacteria in an agar diffusion methodology. Ciprofloxacin (1 mg/mL) was the reference antibiotic drug used in the analysis of collections that included four gram-positive species of multi drug resistant pathogenic bacteria: Staphylococcus aureus (MRSA) (ATCC 6539), Staphylococcus aureus (ATCC 6538), Bacillus cereus (ATCC 10987), Bacillus subtilis (ATCC 6633), and two gram-negative species of multi drug resistant pathogenic bacteria Klebsiella pneumonia (ATCC 13883) and Escherichia coli (ATCC 8739). […] Using a 1 mg/mL concentration of compounds (4a-q), the minimum zone of inhibition (IZ, the area around the antimicrobial agent where bacterial growth is prevented) was established in mm ± standard deviation beyond the well diameter (6 mm). […] The synthetic compound's inhibitory effects on evaluation against these organisms are depicted in Fig. 9 and Table 1.
(§2) Compound 4a-q was screened for its in vitro antimicrobial activities against pathogenic bacteria species using the standard antibiotics Ampicillin, Gentamycin and Ketoconazole as reference drugs as reported previously. The minimum inhibitory concentration (MIC) was determined as previously reported. The antimicrobial activities were performed at the Regional Centre for Mycology & Biotechnology (RCMP), Al-Azhar University.
Background: A growth-free zone around the sample is the usual read-out of agar diffusion tests.

The subject of data set [2] is Bacillus subtilis (ATCC 6633). The data set is described as above. The format is cell-based. To be noted: ATCC6633, B. subtilis, 1 mg/mL, Mueller–Hinton agar, read-out: Diameter of inhibition zone. As for the experimental part:
as §1, §2

Data set [3] has as its system Escherichia coli (ATCC 8739). The description is as above. The format is cell-based. To be noted: ATCC8739, E. coli, 1 mg/mL, Mueller–Hinton agar, read-out: Diameter of inhibition zone. As for the experimental part:
as §1, §2

Data set [4] relates to Klebsiella pneumonia (ATCC 13883). The data set is described as above. Format: cell-based. To be noted: Klebsiella pneumoniae, ATCC13883, K. pneumonia, 1 mg/mL, Mueller–Hinton agar, read-out: Diameter of inhibition zone. As for the experimental part: as §1, §2
In data set [5] the test system is Staphylococcus aureus (ATCC 6538). The description is as above. Format: cell-based. To be noted: ATCC6538, S. aureus, 1 mg/mL, Mueller–Hinton agar, read-out: Diameter of inhibition zone. As for the experimental part:
as §1, §2

Data set [6] relates to Staphylococcus aureus (MRSA) (ATCC 6539). The description is as above. The format is cell-based. To be noted: read-out: Diameter of inhibition zone. As for the experimental part:
as §1, §2

Another data set deals with Bacillus cereus. The data set can be described thus: MIC, Mueller Hinton broth resazurin assay. To be noted: 24 h, MH broth resazurin. Format: cell-based.
Description: (§3) The minimum inhibitory concentration, or MIC, is the lowest concentration needed to stop bacterial growth. When evaluating how well antimicrobial agents work against various bacterial strains, MIC values are crucial. […] The right dosage of the antimicrobial agent to be used in the treatment of bacterial infections can also be determined with the aid of the MIC value. Table 2 and Fig. 10 show the minimum inhibitory concentration (MIC) of the active compound 4 g against various bacterial strains.
as §2
On the technique in general: Resazurin is reduced to fluorescent resorufin, in cell work by metabolically active cells.

Another data set has as its system Bacillus subtilis. As to the kind of experiment: MIC, Mueller Hinton broth resazurin assay. The format is cell-based. To be noted: 24 h, MH broth resazurin.
Description: as §3, §2

A further data set deals with Escherichia coli. The data set can be described thus: MIC, Mueller Hinton broth resazurin assay. To be noted: 24 h, MH broth resazurin. The format is cell-based.
Description: as §3, §2

The next data set has as its system Klebsiella pneumonia. The data set can be described thus: MIC, Mueller Hinton broth resazurin assay. The format is cell-based. To be noted: Klebsiella pneumoniae, 24 h, MH broth resazurin.
Description: as §3, §2

For data set [7], the system named is Staphylococcus aureus (MRSA). As to the kind of experiment: MIC, Mueller Hinton broth resazurin assay. To be noted: 24 h, MH broth resazurin. Format: cell-based.
Description: as §3, §2

Another data set relates to Staphylococcus aureus. As to the kind of experiment: MIC, Mueller Hinton broth resazurin assay. The format is cell-based. To be noted: 24 h, MH broth resazurin.
Description: as §3, §2

The subject of data set [8] is HCT-116 (human colon cancer). As to the kind of experiment: MTT cytotoxicity assay. The format is cell-based. To be noted: MTT, 24-h incubation, mean ± standard error, read-out: IC50 Cancerotoxicity HCT-116. Background: Tetrazolium dyes change colour on reduction, which living cells bring about.
Description: (§4) The antiproliferative activity of the newly synthesized 1H-benzo[f]chromenes derivatives (4a-q) was examined in three human cancer cell lines: MCF-7 (breast cancer), HCT-116 (human colon cancer), and HepG-2 (hepatocellular carcinoma), as well as the two normal cell lines, HFL-1 (human foetal lung) and WI-38 (human diploid fibroblasts), using the 3-(4,5-dimethylthiazol-2-yl)-2,5-diphenyl tetrazolium bromide (MTT) colorimetric assay[56].
(§5) Compounds 4a-q was initially evaluated for in vitro antitumor activity against three different human cell lines: MCF-7, HCT-116 and HepG-2. In-vitro cytotoxicity evaluation was performed at the Regional Center for Mycology & Biotechnology (RCMP), Al-Azhar University under different concentrations (50, 25, 12.5, 6.25, 3.125, 1.56 and 0 µg/mL); vinblastine and doxorubicin are used as reference cytotoxic compounds.
Data set [9] concerns HepG-2 (hepatocellular carcinoma). As to the kind of experiment: MTT cytotoxicity assay. To be noted: Homo sapiens, HepG2, MTT, 24-h incubation, mean ± standard error, read-out: IC50 Cancerotoxicity HepG-2. Format: cell-based.
Description: as §4, §5
Data set [10] relates to HFL-1 (human foetal lung). The data set can be described thus: MTT cytotoxicity assay, normal cells. Format: cell-based. To be noted: HFL1, HFL-1 normal cells, MTT, 24-h incubation, mean ± standard error, read-out: IC50 Normotoxicity HFL-1.
Description: as §4, §5
The test system of data set [11] is WI-38 (human diploid fibroblasts). As to the kind of experiment: MTT cytotoxicity assay, normal cells. Format: cell-based. To be noted: WI-38 normal cells, MTT, 24-h incubation, mean ± standard error, read-out: IC50 Normotoxicity WI-38.
Description: as §4, §5
Data set [12] relates to MCF-7 (breast cancer). The data set can be described thus: MTT cytotoxicity assay. To be noted: Homo sapiens, MCF7, 24 h, read-out: IC50 Cancerotoxicity MCF-7.
Description: as §4, §5
Data set [13] has as its system MCF-7 (breast cancer). To be noted: values marked b, read-out: IC50 Cancerotoxicity MCF-7; cited from earlier work.
In data set [14] the test system is HCT-116 (human colon cancer). To be noted: values marked b, read-out: IC50 Cancerotoxicity HCT-116; cited from earlier work.
Data set [15] deals with HepG-2 (hepatocellular carcinoma). To be noted: values marked b, read-out: IC50 Cancerotoxicity HepG-2; cited from earlier work.

Converted amounts (≈) assume the structure as drawn. Read-outs that look alike come from different tables or passages of the source.

In the case of `COc1ccc2c3c(ccc2c1)OC(N)=C(C#N)C3c1ccc(F)cc1F` (stereo not shown) [Compound 4g, 3-Amino-1-(2,4-difluorophenyl)-8-methoxy-1H-benzo[f]chromene-2-carbonitrile], the melting point was 300 to 301 °C. For the same compound, the zone of inhibition at 1000 µg/mL in data set [1] was 20 mm. Also, in [2], the zone of inhibition at 1000 µg/mL came out at 21 mm. Besides, the zone of inhibition at 1000 µg/mL in data set [3] came out at 14 mm. Besides, the zone of inhibition at 1000 µg/mL in data set [4] came out at 16 mm. Also, the zone of inhibition at 1000 µg/mL in [5] stood at 23 mm. The zone of inhibition at 1000 µg/mL in [6] stood at 17 mm. It took 1000 µg/mL (≈ 2740 µM) to inhibit growth with Bacillus cereus (MIC). Moreover, it took 1000 µg/mL (≈ 2740 µM) to inhibit growth in the data set on Bacillus subtilis (MIC). This compound also gave a minimal inhibitory concentration (MIC) against Escherichia coli of 250 µg/mL (≈ 686 µM). Also, it took 500 µg/mL (≈ 1370 µM) to inhibit growth in the data set with Klebsiella pneumonia (MIC). Also, 500 µg/mL (≈ 1370 µM) was the least that counted as inhibitory in data set [7] (MIC). The lowest concentration to inhibit growth against Staphylococcus aureus (MIC) was 1000 µg/mL (≈ 2740 µM). The 50% inhibitory concentration (IC50) in data set [8] came to 6 ± 0.11 µM. Moreover, the IC50 in data set [9] was determined as 1.9 ± 0.5 µM. In addition, the IC50 in [10] was determined as 179.4 ± 0.1 µM. Also, in [11], the concentration for half-maximal inhibition (IC50) is 190.1 ± 0.3 µM. The concentration for half-maximal inhibition (IC50) in the data set on MCF-7 (breast cancer) [12] worked out at 2.7 ± 0.23 µM.

On to `COc1ccc2c3c(ccc2c1)OC(N)=C(C#N)C3c1ccc(Cl)cc1` (stereo not shown) [Compound 4d, 3-Amino-1-(4-chlorophenyl)-8-methoxy-1H-benzo[f]chromene-2-carbonitrile], for which the melting point lay in the range of 246 to 247 °C. Also, the zone of inhibition at 1000 µg/mL in data set [1] is 15 mm. In addition, in data set [2], the zone of inhibition at 1000 µg/mL amounted to 0 mm. Besides, the zone of inhibition at 1000 µg/mL in data set [3] came to 0 mm. In data set [4], the zone of inhibition at 1000 µg/mL came to 12 mm. The zone of inhibition at 1000 µg/mL in data set [5] was found to be 0 mm. In addition, in data set [6], the zone of inhibition at 1000 µg/mL was found to be 12 mm. The IC50 in data set [10] is 164.4 ± 1.1 µM. In [11], the IC50 was 165.5 ± 1.3 µM. The IC50 in the data set with MCF-7 (breast cancer) [13] was 8.6 ± 0.29 µM. Also, the IC50 in data set [14] was 6.9 ± 0.97 µM. The IC50 in data set [15] is 0.8 ± 0.08 µM.

The compound `COc1ccc2c3c(ccc2c1)OC(N)=C(C#N)C3c1ccc(Br)cc1` (stereo not shown) [Compound 4e, 3-Amino-1-(4-bromophenyl)-8-methoxy-1H-benzo[f]chromene-2-carbonitrile] had a melting point of 261 to 262 °C. In addition, the zone of inhibition at 1000 µg/mL in [1] is 14 mm. Moreover, in data set [2], the zone of inhibition at 1000 µg/mL turned out to be 0 mm. Besides, the zone of inhibition at 1000 µg/mL in data set [3] worked out at 0 mm. In addition, the zone of inhibition at 1000 µg/mL in [4] was 10 mm. The zone of inhibition at 1000 µg/mL in data set [5] is 0 mm. For the same compound, the zone of inhibition at 1000 µg/mL in data set [6] is 12 mm. The IC50 in data set [10] worked out at 189.9 ± 1.1 µM. Further, in data set [11], the IC50 is 165.3 ± 1.2 µM. For the same compound, the 50% inhibitory concentration (IC50) with MCF-7 (breast cancer) [13] is 4.9 ± 0.25 µM. Moreover, the IC50 in [14] is 2.2 ± 0.58 µM. Besides, the 50% inhibitory concentration (IC50) in [15] is 1.7 ± 0.13 µM.

In the case of `COc1ccc2c3c(ccc2c1)OC(N)=C(C#N)C3c1ccc(F)cc1` (stereo not shown) [Compound 4a, 3-Amino-1-(4-fluorophenyl)-8-methoxy-1H-benzo[f]chromene-2-carbonitrile], the melting point is 255 to 256 °C. Also, the zone of inhibition at 1000 µg/mL in [1] is 13 mm. In addition, the zone of inhibition at 1000 µg/mL in data set [2] is 0 mm. For the same compound, the zone of inhibition at 1000 µg/mL in [3] was found to be 11 mm. Moreover, in data set [4], the zone of inhibition at 1000 µg/mL amounted to 14 mm. Further, the zone of inhibition at 1000 µg/mL in [5] was 0 mm. The zone of inhibition at 1000 µg/mL in [6] turned out to be 14 mm. For the same compound, in the data set with MCF-7 (breast cancer) [13], the half-maximal inhibitory concentration (IC50) is 12.7 ± 0.05 µM. For the same compound, the IC50 in data set [14] was 14.2 ± 0.01 µM. Moreover, the 50% inhibitory concentration (IC50) in [15] is 1.5 ± 0.01 µM.
